US20120245123A1, “METHODS FOR IMPROVING BONE HEALTH IN INFANTS USING PREBIOTICS” (ABBOTT LABORATORIES, priority 2011, published 2012)

Key:
[1] = system: femur, tibia and lumbar vertebra of rat offspring; assay: Micro-CT of trabecular and cortical bone architecture in rat offspring after maternal diet supplementation; type: in vivo, Sprague-Dawley rats
Method: Fifty 10-week-old pregnant Sprague-Dawley rats at the eleventh day of gestation (Charles Rivers Laboratories, Orleans Cedex, France) are housed under standardized environmental conditions (22° C., relative humidity of 50%, artificial lighting on for 12 hours/day) and are given free access to deionized water during the test period. The rats are randomly divided into five groups of feeding (n=10/group): (1) Control Group (“Control”), who receives a standard purified rodent diet (SPRD); […] (3) Prebiotic group (“Prebiotic”), who receives the SPRD containing 7.5% of the total carbohydrate as inulin-type fructans (Synergy-1®, Orafti, Belgium); […] During their suckling period, the pups receive only the dam's milk. […] Sacrifices of rat pups are carried out at birth, weaning and at the end of the adolescence period. The whole bone mineral density (BMD) and bone mineral content (BMC) of the skeleton are measured at birth and at weaning by using a pDEXA densitometer (Norland Corp., Fort Atkinson, Wis., USA). In adolescent offspring, the determination of BMC and BMD are analyzed in isolated bones (femur, tibia and vertebrae). Determination of the trabecular architecture parameters (trabecular thickness, separation and number), bone length and bone volume fraction (BV/TV) is analyzed by Micro-computed tomography (micro-CT). Micro-CT analysis is carried out by the Bone & Joint Research Group (University of Southampton, UK) and cortical parameters are performed by SCANCO Medical AG (Bruttisellen, Switzerland). Micro-computed tomography (micro-CT) is a technique for the nondestructive assessment and analysis of the three-dimensional trabecular and cortical bone structural properties. Scanning with micro-CT can be achieved at resolutions as low as 5 μm, allowing for the determination of porosities and subtle modeling and remodeling events of the bone tissue. Furthermore, true three-dimensional image reconstructions permit the assessment of bone microarchitecture as a three dimensional structure, providing critical information to images collected through histomorphometry. In the present Example, femoral, tibia and vertebra cancellous bones are assessed using Metris (XTek) Benchtop 160Xi CT scanner (University of Southampton) and vertebra cortical bone is assessed using MicroCT-40 computed tomography system (Scanco Medical, Basserdorf, Switzerland). […] Micro-CT analysis also allows for the determination of various quality properties of the cortical bone. The bone fragility is influenced not only by the architecture but also by the tissue “quality”. The strength of a bone as an organ depends on the material properties of bone as a tissue. Stiffness, or the resistance of the whole bone to deformation by a load, is a key material property and requires a destructive mechanical technique if measurements are done in vivo. The non-destructive analysis of the volumetric bone mineral density of cortical bone (cortical vBMD) by micro CT has an approximately linear relationship with the stiffness of the cortical bone. Cortical thickness (C.Th) is one of the variables that helps to evaluate the modeling-derived changes provoked by growth. The cortical porosity (C.Sp) reflects the intracortical remodeling in the bone. Remodeling, that occurs in the surfaces of bone, could be enhanced if the pore size becomes larger and, therefore, with the increase of the cortical porosity. An increment on cortical porosity weakens the bone and decreases the bone strength. Results are expressed as mean±SEM, and the probability level at which the differences are considered significant is set at p<0.05. One-way ANOVA is used to evaluate differences attributable to the diet in the different markers, previously testing the homogeneity of variances by Levene's. A posteriori post hoc tests are carried out by the Dunnet test.

[2] = system: skeleton of rat offspring (whole body, femur, tibia, lumbar vertebra); assay: pDEXA densitometry of BMD and BMC in rat offspring after maternal diet supplementation; type: in vivo, Sprague-Dawley rats; conditions: for lumbar vertebra BMC with respect to Control group / lumbar vertebra BMD with respect to Control group: adolescent offspring (90-day-old)
Method: Fifty 10-week-old pregnant Sprague-Dawley rats at the eleventh day of gestation (Charles Rivers Laboratories, Orleans Cedex, France) are housed under standardized environmental conditions (22° C., relative humidity of 50%, artificial lighting on for 12 hours/day) and are given free access to deionized water during the test period. The rats are randomly divided into five groups of feeding (n=10/group): (1) Control Group (“Control”), who receives a standard purified rodent diet (SPRD); […] (3) Prebiotic group (“Prebiotic”), who receives the SPRD containing 7.5% of the total carbohydrate as inulin-type fructans (Synergy-1®, Orafti, Belgium); […] During their suckling period, the pups receive only the dam's milk. […] Sacrifices of rat pups are carried out at birth, weaning and at the end of the adolescence period. The whole bone mineral density (BMD) and bone mineral content (BMC) of the skeleton are measured at birth and at weaning by using a pDEXA densitometer (Norland Corp., Fort Atkinson, Wis., USA). In adolescent offspring, the determination of BMC and BMD are analyzed in isolated bones (femur, tibia and vertebrae). Determination of the trabecular architecture parameters (trabecular thickness, separation and number), bone length and bone volume fraction (BV/TV) is analyzed by Micro-computed tomography (micro-CT). Micro-CT analysis is carried out by the Bone & Joint Research Group (University of Southampton, UK) and cortical parameters are performed by SCANCO Medical AG (Bruttisellen, Switzerland). DEXA scan is a technique used in the clinical practice for the analysis of bone health. Two main bone properties can be measured by this technique: Bone Mineral Content (BMC) and areal Bone Mineral Density (BMD). BMC determines the mass of mineral present in the whole body or in the selected skeletal region. BMC changes reflect the result of the metabolic “mass” balance between bone formation and bone destruction. BMC represented relative to the projected bone area refers to BMD. BMD represents the […] present in the bone region studied. […] The manufacturer's software for research in small animals calculates BMC and BMD for the isolated bone. Femur is measured from the femoral neck to the knee joint. Tibia is measured from the knee joint to the joint between tibia and calcaneus, also including fibula. […] Results are expressed as mean±SEM, and the probability level at which the differences are considered significant is set at p<0.05. One-way ANOVA is used to evaluate differences attributable to the diet in the different markers, previously testing the homogeneity of variances by Levene's. A posteriori post hoc tests are carried out by the Dunnet test.

[3] = adolescent offspring (90-day-old)

Compound	vertebra BV/TV enhanced in comparison with Control group [1, 3] [%]	vertebra cortical porosity, effect [1, 3]	vertebra cortical vBMD, effect [1, 3]	vertebra trabecular separation respective to Control group [1, 3]	vertebra trabecular thickness enhanced in comparison with Control group [1, 3] [%]	vertebrae cortical thickness, effect [1, 3]	trabecular number of femur and tibia respective to Control group ([1]; pups at delivery)	trabecular separation of femur and tibia respective to Control group ([1]; pups at delivery)	trabecular thickness of femur and tibia respective to Control group ([1]; pups at delivery)	increase in vertebra trabecular thickness respective to Control group ([1]; pups at weaning) [%]	vertebra BV/TV ratio respective to Control group ([1]; pups at weaning)	vertebra trabecular separation respective to Control group ([1]; pups at weaning)	lumbar vertebra BMC with respect to Control group [2]	lumbar vertebra BMD with respect to Control group [2]	cortical features of the vertebra [1, 3]	vertebra BV/TV, effect versus Control group [1, 3]	vertebra trabecular thickness, effect versus Control group [1, 3]	whole body BMC relative to Control group ([2]; pups at weaning)
O=C([O-])[O-].[Ca+2] [Calcium, calcium carbonate]	22	decrease	increase	significant decrease	17	without significantly affecting	greater	decrease in the trabecular separation, although statistical differences are not achieved	lower	~30	statistically different	statistically different	no differences	no differences				
Vitamin D													no differences	no differences	does not show any improvement	No effect	No effect	lower
